*1 amine or outer side, *2 acyl side, *3 side chain or, on linkers, in order; H or OH if unused. Where a SMILES comes first, the peptide text is derived from it. Side-chain parts run from the residue outwards. [ ]: non-standard residue; d: D form. The star is where a group is joined. C18 diacid = O=C(O)CCCCCCCCCCCCCCCCC(=O)*; C16 diacid = O=C(O)CCCCCCCCCCCCCCC(=O)*; γGlu = O=C(O)[C@H](CCC(=O)[*:2])N[*:1]; NMeI = CC[C@H](C)[C@H](NC)C(=O)O; AEEA = NCCOCCOCC(=O)O; Aib = CC(C)(N)C(=O)O
Target: T1, CFR1R receptor (Homo sapiens, UniProt P34998)
T1 construct: host or cells: CHO-K1 (clone 2)
T1 sequence (P34998 24-415): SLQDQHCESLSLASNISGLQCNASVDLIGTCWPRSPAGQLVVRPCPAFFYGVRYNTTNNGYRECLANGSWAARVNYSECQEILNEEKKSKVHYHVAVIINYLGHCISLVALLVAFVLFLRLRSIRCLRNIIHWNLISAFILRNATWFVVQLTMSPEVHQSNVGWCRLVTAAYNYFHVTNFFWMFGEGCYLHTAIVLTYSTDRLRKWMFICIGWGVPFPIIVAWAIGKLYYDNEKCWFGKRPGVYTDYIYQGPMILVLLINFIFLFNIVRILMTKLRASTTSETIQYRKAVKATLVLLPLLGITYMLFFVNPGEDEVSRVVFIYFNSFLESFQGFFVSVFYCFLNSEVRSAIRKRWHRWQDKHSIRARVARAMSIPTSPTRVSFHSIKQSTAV
Test: Activity at anti-target CFR1R receptor, cAMP assay in CRF1R-overexpression CHO-K1 cells
Assay type: cell-based
Settings: 100% = Sauvagine at 100 nM
Experimental: Assessment of activity at anti-target CFR1R receptor is done using the same procedure as the one described for the TeloHEAC cell line. The CRF1R-overexpression CHO-K1 cell line clone 2 was purchased from PerkinElmer. Cells were grown in a 10 cm dish at 37° C./5% CO2 in medium (F12 (Hams)/10% FBS/400 μg/ml G418) to near confluence. At that stage, cells were harvested, resuspended to 10 million/mL in culture medium without G418 and with 10% DMSO. 1 mL vial aliquots were slowly frozen to −80° C. in isopropanol and then transferred in liquid nitrogen for storage. These vials were used to run the experiment following the procedure reported in the previous paragraph, except for the compound used in the control well to define the 100% activation (Sauvagine at 100 nM) and the cell density (final cell density: 4000 cells/well)

| Emax (% I) | Structure (SMILES) | further results |
| --- | --- | --- |
| 6 | CC[C@H](C)[C@H](N)C(=O)N[C@H](C(=O)N[C@@H](CC(C)C)C(=O)N[C@@H](CO)C(=O)N[C@@H](CC(C)C)C(=O)N[C@@H](CC(=O)O)C(=O)N[C@H](C(=O)N1CCC[C@H]1C(=O)N[C@H](C(=O)N[C@@H](CCCCN)C(=O)N[C@@H](CC(C)C)C(=O)N[C@@H](CCCCNC(=O)COCCOCCNC(=O)COCCOCCNC(=O)CC[C@H](NC(=O)CC[C@H](NC(=O)CCCCCCCCCCCCCCCCC(=O)O)C(=O)O)C(=O)O)C(=O)N[C@@H](CCC(N)=O)C(=O)NC(C)(C)C(=O)N[C@@H](CC(C)C)C(=O)N[C@@H](CC(C)C)C(=O)N[C@@H](CCCCN)C(=O)N[C@@H](CCC(N)=O)C(=O)N[C@@H](CCC(=O)O)C(=O)N[C@@H](CCCNC(=N)N)C(=O)N[C@@H](CCC(N)=O)C(=O)N[C@@H](CCCCN)C(=O)N[C@@H](CCCCN)C(=O)N[C@@H](CCC(N)=O)C(=O)N[C@@H](CCCNC(=N)N)C(=O)N[C@@H](CCC(=O)O)C(=O)N[C@@H](CCC(N)=O)C(=O)N[C@@H](C)C(=O)N[C@@H](CCC(=O)O)C(=O)N[C@@H](CCCCN)C(=O)N[C@@H](CC(N)=O)C(=O)NC(C)(C)C(=O)N[C@@H](CCC(N)=O)C(=O)N[C@H](C(=O)N[C@@H](CC(C)C)C(=O)N[C@@H](CCC(=O)O)C(=O)N[C@@H](CCC(N)=O)C(=O)N[C@H](C(N)=O)C(C)C)[C@@H](C)CC)[C@@H](C)CC)C(C)C)C(C)C [compound 25] (H-IVLSLDVPIKLK([AEEA-AEEA-γGlu-γGlu-C18 diacid])Q[Aib]LLKQERQKKQREQAEKN[Aib]QILEQV-NH2) |  |
| 1 | CC[C@H](C)[C@H](NC(C)=O)C(=O)N[C@H](C(=O)N[C@@H](CC(C)C)C(=O)N[C@@H](CO)C(=O)N[C@@H](CC(C)C)C(=O)N[C@@H](CC(=O)O)C(=O)N[C@H](C(=O)N1CCC[C@H]1C(=O)N[C@H](C(=O)N[C@@H](CCCCN)C(=O)N[C@@H](CC(C)C)C(=O)N[C@@H](CCCCNC(=O)COCCOCCNC(=O)COCCOCCNC(=O)CC[C@H](NC(=O)CC[C@H](NC(=O)CCCCCCCCCCCCCCCCC(=O)O)C(=O)O)C(=O)O)C(=O)N[C@@H](CCC(N)=O)C(=O)NC(C)(C)C(=O)N[C@@H](CC(C)C)C(=O)N[C@@H](CC(C)C)C(=O)N[C@@H](CCCCN)C(=O)N[C@@H](CCC(N)=O)C(=O)N[C@@H](CCC(=O)O)C(=O)N[C@@H](CCCNC(=N)N)C(=O)N[C@@H](CCC(N)=O)C(=O)N[C@@H](CCCCN)C(=O)N[C@@H](CCCCN)C(=O)N[C@@H](CCC(N)=O)C(=O)N[C@@H](CCCNC(=N)N)C(=O)N[C@@H](CCC(=O)O)C(=O)N[C@@H](CCC(N)=O)C(=O)N[C@@H](C)C(=O)N[C@@H](CCC(=O)O)C(=O)N[C@@H](CCCCN)C(=O)N[C@@H](CC(N)=O)C(=O)NC(C)(C)C(=O)N[C@@H](CCC(N)=O)C(=O)N[C@H](C(=O)N[C@@H](CC(C)C)C(=O)N[C@@H](CCC(=O)O)C(=O)N[C@@H](CCC(N)=O)C(=O)N[C@H](C(N)=O)C(C)C)[C@@H](C)CC)[C@@H](C)CC)C(C)C)C(C)C [compound 26] (Ac-IVLSLDVPIKLK([AEEA-AEEA-γGlu-γGlu-C18 diacid])Q[Aib]LLKQERQKKQREQAEKN[Aib]QILEQV-NH2) |  |

The next lines start with the compound.

| Structure (SMILES) | Emax (% I) | further results |
| --- | --- | --- |
| CC[C@H](C)[C@H](NC(C)=O)C(=O)N[C@H](C(=O)N[C@@H](CC(C)C)C(=O)N[C@@H](CO)C(=O)N[C@@H](CC(C)C)C(=O)N[C@@H](CC(=O)O)C(=O)N[C@@H](C(=O)N1CCC[C@H]1C(=O)N[C@H](C(=O)N[C@@H](CCCCN)C(=O)N[C@@H](CC(C)C)C(=O)N[C@@H](CCCCNC(=O)CC[C@H](NC(=O)CCCCCCCCCCCCCCC(=O)O)C(=O)O)C(=O)N[C@@H](CCC(N)=O)C(=O)N[C@H](C(=O)N[C@@H](CC(C)C)C(=O)N[C@@H](CC(C)C)C(=O)N[C@@H](CCCCN)C(=O)N[C@@H](CCC(N)=O)C(=O)N[C@@H](CCC(=O)O)C(=O)N[C@@H](CCCNC(=N)N)C(=O)N[C@@H](CCC(N)=O)C(=O)N[C@@H](CCCCN)C(=O)N[C@@H](CCCCN)C(=O)N[C@@H](CCC(N)=O)C(=O)N[C@@H](CCCNC(=N)N)C(=O)N[C@@H](CCC(=O)O)C(=O)N[C@@H](CCC(N)=O)C(=O)N[C@@H](C)C(=O)N[C@@H](CCC(=O)O)C(=O)N[C@@H](CCCCN)C(=O)N[C@@H](CC(N)=O)C(=O)N[C@@H](CCCCN)C(=O)N[C@@H](CCC(N)=O)C(=O)N[C@H](C(=O)N[C@@H](CC(C)C)C(=O)N[C@@H](CCC(=O)O)C(=O)N[C@@H](CCC(N)=O)C(=O)N[C@H](C(N)=O)C(C)C)[C@@H](C)CC)[C@@H](C)CC)[C@@H](C)CC)C(C)C)C(C)C [SEQ ID No. 2, reference compound] (Ac-IVLSLD[dV]PIKLK([γGlu-C16 diacid])QILLKQERQKKQREQAEKNKQILEQV-NH2) | 4 |  |
| CC[C@H](C)[C@H](NC(C)=O)C(=O)N[C@H](C(=O)N[C@@H](CC(C)C)C(=O)N[C@@H](CO)C(=O)N[C@@H](CC(C)C)C(=O)N[C@@H](CC(=O)O)C(=O)N[C@@H](C(=O)N1CCC[C@H]1C(=O)N[C@H](C(=O)N[C@@H](CCCCN)C(=O)N[C@@H](CC(C)C)C(=O)N[C@@H](CCCCNC(=O)CC[C@H](NC(=O)CCCCCCCCCCCCCCCCC(=O)O)C(=O)O)C(=O)N[C@@H](CCCCN)C(=O)N[C@H](C(=O)N[C@@H](CC(C)C)C(=O)N[C@@H](CC(C)C)C(=O)N[C@@H](CCC(=O)O)C(=O)N[C@@H](CCC(N)=O)C(=O)N[C@@H](CCC(=O)O)C(=O)N[C@@H](CCCCN)C(=O)N[C@@H](CCC(N)=O)C(=O)N[C@@H](CCCCN)C(=O)N[C@@H](CCCCN)C(=O)N[C@@H](CCC(N)=O)C(=O)N[C@@H](CCCNC(=N)N)C(=O)N[C@@H](CCC(=O)O)C(=O)N[C@@H](CCC(N)=O)C(=O)N[C@@H](C)C(=O)N[C@@H](CCC(=O)O)C(=O)N[C@H](C(=O)N[C@@H](CC(N)=O)C(=O)N[C@@H](CCC(=O)O)C(=O)N[C@@H](CCC(N)=O)C(=O)N[C@H](C(=O)N[C@@H](CC(C)C)C(=O)N[C@@H](C)C(=O)N[C@@H](CCC(N)=O)C(=O)N[C@H](C(N)=O)C(C)C)[C@@H](C)CC)[C@@H](C)O)[C@@H](C)CC)[C@@H](C)CC)C(C)C)C(C)C [SEQ ID No. 130, reference compound] (Ac-IVLSLD[dV]PIKLK([γGlu-C18 diacid])KILLEQEKQKKQREQAETNEQILAQV-NH2) |  | Emax (% I) (listed as 13): 24 % I |
| CC[C@H](C)[C@H](NC)C(=O)N[C@H](C(=O)N[C@@H](CC(C)C)C(=O)N[C@@H](CO)C(=O)N[C@@H](CC(C)C)C(=O)N[C@@H](CC(=O)O)C(=O)N[C@@H](C(=O)N1CCC[C@H]1C(=O)N[C@H](C(=O)N[C@@H](CCCCN)C(=O)N[C@@H](CC(C)C)C(=O)N[C@@H](CCCCNC(=O)CC[C@H](NC(=O)CCCCCCCCCCCCCCCCC(=O)O)C(=O)O)C(=O)N[C@@H](CCCCN)C(=O)N[C@H](C(=O)N[C@@H](CC(C)C)C(=O)N[C@@H](CC(C)C)C(=O)N[C@@H](CCC(=O)O)C(=O)N[C@@H](CCC(N)=O)C(=O)N[C@@H](CCC(=O)O)C(=O)N[C@@H](CCCCN)C(=O)N[C@@H](CCC(N)=O)C(=O)N[C@@H](CCCCN)C(=O)N[C@@H](CCCCN)C(=O)N[C@@H](CCC(N)=O)C(=O)N[C@@H](CCCNC(=N)N)C(=O)N[C@@H](CCC(=O)O)C(=O)N[C@@H](CCC(N)=O)C(=O)N[C@@H](C)C(=O)N[C@@H](CCC(=O)O)C(=O)N[C@H](C(=O)N[C@@H](CC(N)=O)C(=O)N[C@@H](CCC(=O)O)C(=O)N[C@@H](CCC(N)=O)C(=O)N[C@H](C(=O)N[C@@H](CC(C)C)C(=O)N[C@@H](C)C(=O)N[C@@H](CCC(N)=O)C(=O)N[C@H](C(N)=O)C(C)C)[C@@H](C)CC)[C@@H](C)O)[C@@H](C)CC)[C@@H](C)CC)C(C)C)C(C)C [SEQ ID No. 142, reference compound] (H-[NMeI]VLSLD[dV]PIKLK([γGlu-C18 diacid])KILLEQEKQKKQREQAETNEQILAQV-NH2) |  | Emax (% I) (listed as 14): 24 % I |
| CC[C@H](C)[C@H](N)C(=O)N[C@H](C(=O)N[C@@H](CC(C)C)C(=O)N[C@@H](CO)C(=O)N[C@@H](CC(C)C)C(=O)N[C@@H](CC(=O)O)C(=O)N[C@@H](C(=O)N1CCC[C@H]1C(=O)N[C@H](C(=O)N[C@@H](CCCCN)C(=O)N[C@@H](CC(C)C)C(=O)N[C@@H](CCCCNC(=O)COCCOCCNC(=O)COCCOCCNC(=O)CC[C@H](NC(=O)CCCCCCCCCCCCCCC(=O)O)C(=O)O)C(=O)N[C@@H](CCC(N)=O)C(=O)N[C@H](C(=O)N[C@@H](CC(C)C)C(=O)N[C@@H](CC(C)C)C(=O)N[C@@H](CCCCN)C(=O)N[C@@H](CCC(N)=O)C(=O)N[C@@H](CCC(=O)O)C(=O)N[C@@H](CCCNC(=N)N)C(=O)N[C@@H](CCC(N)=O)C(=O)N[C@@H](CCCCN)C(=O)N[C@@H](CCCCN)C(=O)N[C@@H](CCC(N)=O)C(=O)N[C@@H](CCCNC(=N)N)C(=O)N[C@@H](CCC(=O)O)C(=O)N[C@@H](CCC(N)=O)C(=O)N[C@@H](C)C(=O)N[C@@H](CCC(=O)O)C(=O)N[C@@H](CCCCN)C(=O)N[C@@H](CC(N)=O)C(=O)N[C@@H](CCCCN)C(=O)N[C@@H](CCC(N)=O)C(=O)N[C@H](C(=O)N[C@@H](CC(C)C)C(=O)N[C@@H](CCC(=O)O)C(=O)N[C@@H](CCC(N)=O)C(=O)N[C@H](C(N)=O)C(C)C)[C@@H](C)CC)[C@@H](C)CC)[C@@H](C)CC)C(C)C)C(C)C [SEQ ID No. 148, reference compound] (H-IVLSLD[dV]PIKLK([AEEA-AEEA-γGlu-C16 diacid])QILLKQERQKKQREQAEKNKQILEQV-NH2) |  | Emax (% I) (listed as 2): 63 % I |

From patent US20260001928A1 (CORTERIA PHARMACEUTICALS, priority 2022, published 2026)
